{
  "source": "patent US7186743B2",
  "about": "“Substituted pyrazolyl compounds for the treatment of inflammation” (Pharmacia Corporation, priority 2001, dated 2007)",
  "target": "T1, IKK2 (Homo sapiens, UniProt O14920)",
  "T1 construct": "made in house; host or cells: insect cells (baculovirus, pFastBac; SF9)",
  "T1 sequence (O14920 1-756)": "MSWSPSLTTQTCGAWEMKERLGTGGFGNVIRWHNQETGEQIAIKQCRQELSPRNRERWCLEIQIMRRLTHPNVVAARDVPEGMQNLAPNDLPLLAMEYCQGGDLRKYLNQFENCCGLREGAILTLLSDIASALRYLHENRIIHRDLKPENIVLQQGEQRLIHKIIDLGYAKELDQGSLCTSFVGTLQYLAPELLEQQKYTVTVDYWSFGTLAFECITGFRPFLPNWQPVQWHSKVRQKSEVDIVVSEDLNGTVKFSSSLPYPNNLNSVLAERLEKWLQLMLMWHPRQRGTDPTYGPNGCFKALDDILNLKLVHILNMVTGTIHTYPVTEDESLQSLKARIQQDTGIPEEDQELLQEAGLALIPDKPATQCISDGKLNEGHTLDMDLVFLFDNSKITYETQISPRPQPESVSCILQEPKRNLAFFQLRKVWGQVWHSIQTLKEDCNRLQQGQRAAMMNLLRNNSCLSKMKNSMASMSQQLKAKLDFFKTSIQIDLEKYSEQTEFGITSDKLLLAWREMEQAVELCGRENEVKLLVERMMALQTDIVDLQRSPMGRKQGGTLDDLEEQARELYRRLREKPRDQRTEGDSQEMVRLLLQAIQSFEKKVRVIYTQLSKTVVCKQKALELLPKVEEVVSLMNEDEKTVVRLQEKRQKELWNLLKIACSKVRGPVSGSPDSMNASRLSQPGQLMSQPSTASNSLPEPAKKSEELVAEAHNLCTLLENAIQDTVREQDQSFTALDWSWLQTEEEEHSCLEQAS",
  "assay": "IKKβ Resin Enzyme Assay (IKK2 resin)",
  "assay_type": "biochemical",
  "in_short": "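Enzyme: human IKK2 with a C-terminal FLAG tag, baculovirus-expressed, purified as homodimer on anti-FLAG resin. It phosphorylates a biotinylated IκBα peptide with 1 μM ATP plus [γ-33P]ATP in 25 mM Hepes pH 7.6, Mg/Mn, for 30 min at 25° C. Incorporation is counted by scintillation after anion-exchange resin stop.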",
  "key": {"[1]": {"conditions": "Table 2, read-out: IKK Resin IC50"}, "[2]": {"conditions": "Table 14, read-out: IKK2 Resin IC50"}},
  "note": "Structures can show the parent of a compound that is named as a salt. Where two headings read alike, the source gives them in different places.",
  "data": [
    {"smiles": "CN(C)c1ccc(Cl)c(C(=O)Nc2ccc3c(c2)-c2c(c(C(N)=O)nn2-c2ccc(S(C)(=O)=O)cc2)CC3)c1", "note": "[Example 120, 8-{[2-chloro-5-(dimethylamino)benzoyl]amino}-1-[4-(methylsulfonyl)phenyl]-4,5-dihydro-1H-benzo[g]indazole-3-carboxamide]", "values": [
      {"measurement": "IC50", "setting": "[1]", "result": "≤ 1", "unit": "µM"}
    ]},
    {"smiles": "CS(=O)(=O)c1ccc(-n2nc(C(N)=O)c3c2-c2cc(NC(=O)c4ccc(Cl)cc4[N+](=O)[O-])ccc2CC3)cc1", "note": "[Example 132, 8-[(4-chloro-2-nitrobenzoyl)amino]-1-[4-(methylsulfonyl)phenyl]-4,5-dihydro-1H-benzo[g]indazole-3-carboxamide]", "values": [
      {"measurement": "IC50", "setting": "Table 3, read-out: IKK Resin IC50", "result": "≤ 1", "unit": "µM"}
    ]},
    {"smiles": "NC(=O)c1nn(-c2ccc(F)c(F)c2)c2c1CCc1ccc(NC(=O)c3ccccc3Cl)cc1-2", "note": "[Example 363, 8-[(2-chlorobenzoyl)amino]-1-(3,4-difluorophenyl)-4,5-dihydro-1H-benzo[g]indazole-3-carboxamide]", "values": [
      {"measurement": "IC50", "setting": "[2]", "result": "≤ 1", "unit": "µM"}
    ]},
    {"smiles": "Cc1ccccc1C(=O)Nc1ccc2c(c1)-c1c(c(C(N)=O)nn1-c1ccc(S(C)(=O)=O)cc1)CC2", "note": "[Example 94, 8-[(2-methylbenzoyl)amino]-1-[4-(methylsulfonyl)phenyl]-4,5-dihydro-1H-benzo[g]indazole-3-carboxamide]", "values": [
      {"measurement": "IC50", "setting": "[1]", "result": "≤ 1", "unit": "µM"}
    ]},
    {"smiles": "COc1ccc(C(=O)Nc2ccc3c(c2)-c2c(c(C(N)=O)nn2-c2ccc(F)cc2)CC3)c(Cl)c1", "note": "[Example 233, 8-[(2-chloro-4-methoxybenzoyl)amino]-1-(4-fluorophenyl)-4,5-dihydro-1H-benzo[g]indazole-3-carboxamide]", "values": [
      {"measurement": "IC50", "setting": "Table 6, read-out: IKK2 Resin IC 50", "result": "≤ 1", "unit": "µM"}
    ]},
    {"smiles": "CSc1ccc(-n2nc(C(N)=O)c3c2-c2cc(NC(=O)c4ccncc4Cl)ccc2CC3)cc1", "note": "[Example 412, 8-[(3-chloroisonicotinoyl)amino]-1-[4-(methylthio)phenyl]-4,5-dihydro-1H-benzo[g]indazole-3-carboxamide hydrochloride]", "values": [
      {"measurement": "IC50", "setting": "Table 19, read-out: IKK2 Resin IC50", "result": "≤ 1", "unit": "µM"}
    ]},
    {"smiles": "CN(C)S(=O)(=O)c1ccc(-n2nc(C(N)=O)c3c2-c2cc(NC(=O)c4ccccc4Cl)ccc2CC3)cc1", "note": "[Example 427, 8-[(2-chlorobenzoyl)amino]-1-{4-[(dimethylamino)sulfonyl]phenyl}-4,5-dihydro-1H-benzo[g]indazole-3-carboxamide]", "values": [
      {"measurement": "IC50", "setting": "Table 21, read-out: IKK2 Resin IC50", "result": "≤ 1", "unit": "µM"}
    ]},
    {"smiles": "NC(=O)c1nn(-c2cccc(O)c2)c2c1CCc1ccc(NC(=O)c3cc4c(cc3Cl)OCO4)cc1-2", "note": "[Example 277, 8-{[(6-chloro-1,3-benzodioxol-5-yl)carbonyl]amino}-1-(3-hydroxyphenyl)-4,5-dihydro-1H-benzo[g]indazole-3-carboxamide]", "values": [
      {"measurement": "IC50", "setting": "Table 10, read-out: IKK2 Resin IC50", "result": "≤ 1", "unit": "µM"}
    ]},
    {"smiles": "CN1CCN(c2ccc(Cl)c(C(=O)Nc3ccc4c(c3)-c3c(c(C(N)=O)nn3-c3ccc(F)cc3)CC4)c2)CC1", "note": "[Example 258, 8-{[2-chloro-5-(4-methylpiperazin-1-yI)benzoyl]amino}-1-(4-fluorophenyl)-4,5-dihydro-1H-benzo[g]indazole-3-carboxamide]", "values": [
      {"measurement": "IC50", "setting": "Table 7, read-out: IKK2 Resin IC50", "result": "≤ 1", "unit": "µM"}
    ]},
    {"smiles": "NC(=O)c1nn(-c2ccc3c(c2)OCO3)c2c1CCc1ccc(NC(=O)c3cc([N+](=O)[O-])ccc3Cl)cc1-2", "note": "[Example 173, 1-(1,3-benzodioxol-5-yl)-8-[(2-chloro-5-nitrobenzoyl)amino]-4,5-dihydro-1H-benzo[g]indazole-3-carboxamide]", "values": [
      {"measurement": "IC50", "setting": "Table 4, read-out: IKK2 Resin IC50", "result": "≤ 1", "unit": "µM"}
    ]},
    {"smiles": "NC(=O)c1nn(-c2ccc(S(=O)(=O)C(F)(F)F)cc2)c2c1CCc1ccc(NC(=O)c3ccncc3Cl)cc1-2", "note": "[Example 358, 8-[(3-chloroisonicotinoyl)amino]-1-{4-[(trifluoromethyl)sulfonyl]phenyl}-4,5-dihydro-1H-benzo[g]indazole-3-carboxamide hydrochloride]", "values": [
      {"measurement": "IC50", "setting": "[2]", "result": "≤ 1", "unit": "µM"}
    ]},
    {"smiles": "NC(=O)c1nn(-c2ccc3c(c2)OCO3)c2c1CCc1ccc(NC(=O)CNC3CCC3)cc1-2", "note": "[Example 445, 1-(1,3-benzodioxol-5-yl)-8-[(N-cyclobutylglycyl)amino]-4,5-dihydro-1H-benzo[g]indazole-3-carboxamidehydrochloride]", "values": [
      {"measurement": "IC50", "setting": "Table 23, read-out: IKK2 Resin IC50", "result": "≤ 1", "unit": "µM"}
    ]}
  ]
}
